The test system of the experiment is HT-1080 (ATCC, CCL-121) cells. In words: HT-1080 cell viability assay with ferroptosis inducer RSL3 (Cell Titer-Glo). The conditions noted are these: Homo sapiens; HT-1080 cells treated with RSL3; 3-fold, 10-point dilution, 1.1 μM highest concentration; Table 2; read-out: EC50 (nM), ferroptosis inhibitory activity. The experiment is classed as cell-based. The method, boiled down:
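EC50 was derived by sigmoidal dose-response regression of CellTiter-Glo luminescence viability, expressed relative to untreated wells. Compounds were tested in a ten-point, threefold dilution series (highest 1.1 μM) in the presence of the ferroptosis inducer RSL3. HT-1080 cells had been seeded at 6000 per well and grown overnight first.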
On the technique in general: ATP-based viability assays read luminescence as a measure of living cells.
Regarding `CCn1c(=O)n(CC)c2cc(Nc3ccc(N4CCC(C)CC4)cc3)ccc21` [Compound 328, 1,3-diethyl-5-((4-(4-methylpiperidin-1-yl)phenyl)amino)-1,3-dihydro-2H-benzo[d]imidazol-2-one], the EC50 was in the range of 0.1 to 100 nM.

For `CC1CCN(c2ccc(Nc3ccc4c(ccn4C)c3)cc2)CC1` [Compound 329, 1-methyl-N-(4-(4-methylpiperidin-1-yl)phenyl)-1H-indol-5-amine], the EC50 fell in the range of 0.1 to 100 nM.

For the compound `CC1CCN(c2ccc(Nc3ccc4ccn(C)c4c3)cc2)CC1` [Compound 330, 1-methyl-N-(4-(4-methylpiperidin-1-yl)phenyl)-1H-indol-6-amine], the EC50 lay in the range of 0.1 to 100 nM.

For the compound `Cn1cnc2cc(Nc3ccc4c(c3)n(C)c(=O)n4C)ccc21` [Compound 331, 1,3-dimethyl-5-((1-methyl-1H-benzo[d]imidazol-5-yl)amino)-1,3-dihydro-2H-benzo[d]imidazol-2-one], the EC50 was in the range of 100 to 1000 nM.

On to `Cn1c(=O)n(C)c2cc(Nc3ccc(N4CCC(O)(C(F)(F)F)CC4)cc3)ccc21` [Compound 332, 5-((4-(4-hydroxy-4-(trifluoromethyl)piperidin-1-yl)phenyl)amino)-1,3-dimethyl-1,3-dihydro-2H-benzo[d]imidazol-2-one], for which the EC50 is 0.1 to 100 nM.

Regarding `Cn1c(=O)oc2cc(Nc3ccc(N4CCC(O)(C(F)(F)F)CC4)cc3)ccc21` [Compound 333, 6-((4-(4-hydroxy-4-(trifluoromethyl)piperidin-1-yl)phenyl)amino)-3-methylbenzo[d]oxazol-2(3H)-one], the EC50 lay within 0.1 to 100 nM.

For `COCCn1c(=O)n(C)c2ccc(Nc3ccc(N4CCC(C(F)(F)F)CC4)cc3)cc21` [Compound 334, 3-(2-methoxyethyl)-1-methyl-5-((4-(4-(trifluoromethyl)piperidin-1-yl)phenyl)amino)-1,3-dihydro-2H-benzo[d]imidazol-2-one], the EC50 was 0.1 to 100 nM.

Regarding `CN1C(=O)C(C)(C)c2ccc(Nc3ccc(N4CCC(C(F)(F)F)CC4)cc3)cc21` [Compound 335, 1,3,3-trimethyl-6-((4-(4-(trifluoromethyl)piperidin-1-yl)phenyl)amino) indolin-2-one], the EC50 lay in the range of 0.1 to 100 nM.

With `Cn1cnc2cc(Nc3ccc(N4CCC(C(F)(F)F)CC4)cc3)ccc21` [Compound 336, 1-methyl-N-(4-(4-(trifluoromethyl)piperidin-1-yl)phenyl)-1H-benzo[d]imidazol-5-amine], the EC50 is 0.1 to 100 nM.

For the compound `FC(F)(F)C1CCN(c2ccc(Nc3ccc4occc4c3)cc2)CC1` [Compound 337, N-(4-(4-(trifluoromethyl)piperidin-1-yl)phenyl)benzofuran-5-amine], the EC50 lay in the range of 0.1 to 100 nM.

For `CC1CCN(c2ccc(Nc3ccc4c(c3)N(C)CC4(C)C)cc2)CC1` [Compound 338, 1,3,3-trimethyl-N-(4-(4-methylpiperidin-1-yl)phenyl)indolin-6-amine], the EC50 lay within 0.1 to 100 nM.

Turning to `Cc1nc2ccc(Nc3ccc(N4CCC(C)CC4)cc3)cc2o1` [Compound 339, 2-methyl-N-(4-(4-methylpiperidin-1-yl)phenyl)benzo[d]oxazol-6-amine], the EC50 was in the range of 0.1 to 100 nM.

Take `C/N=c1\n(C)c2ccc(Nc3ccc(N4CCC(C(F)(F)F)CC4)cc3)cc2n1C` [Compound 340, 1,3-dimethyl-2-(methylimino)-N-(4-(4-(trifluoromethyl)piperidin-1-yl)phenyl)-2,3-dihydro-1H-benzo[d]imidazol-5-amine]: the EC50 was 0.1 to 100 nM.

`Cn1c(=O)n(C)c2cc(Nc3ccc(N4CCC(C)(O)CC4)cc3)ccc21` [Compound 341, 5-((4-(4-hydroxy-4-methylpiperidin-1-yl)phenyl)amino)-1,3-dimethyl-1,3-dihydro-2H-benzo[d]imidazol-2-one]: the EC50 was 0.1 to 100 nM.

As for `Cn1c(=O)n(C)c2cc(Nc3ccsc3)ccc21` [Compound 342, 1,3-dimethyl-5-(thiophen-3-ylamino)-1,3-dihydro-2H-benzo[d]imidazol-2-one], the half-maximal effective concentration (EC50) fell in the range of 100 to 1000 nM.

`Cn1c(=O)n(C)c2ncc(Nc3ccc(N4CCC(C(F)(F)F)CC4)cc3)cc21` [Compound 343, 1,3-dimethyl-6-((4-(4-(trifluoromethyl)piperidin-1-yl)phenyl)amino)-1,3-dihydro-2H-imidazo[4,5-b]pyridin-2-one]: the EC50 lay in the range of 0.1 to 100 nM.

Consider `Cn1c(=O)oc2cc(Nc3ccc4c(c3)n(C)c(=O)n4C)ccc21` [Compound 344, 6-((1,3-dimethyl-2-oxo-2,3-dihydro-1H-benzo[d]imidazol-5-yl)amino)-3-methylbenzo[d]oxazol-2(3H)-one], for which the EC50 lay within 0.1 to 100 nM.

Regarding `CC1CCN(c2ccc(Nc3ccc4c(c3)n(C)c(=N)n4C)cc2)CC1` [Compound 345, 2-imino-1,3-dimethyl-N-(4-(4-methylpiperidin-1-yl)phenyl)-2,3-dihydro-1H-benzo[d]imidazol-5-amine], the EC50 was 0.1 to 100 nM.

As for `CN1CCOc2cc(Nc3ccc(N4CCC(C(F)(F)F)CC4)cc3)ccc2C1=O` [Compound 346, 4-methyl-8-((4-(4-(trifluoromethyl)piperidin-1-yl)phenyl)amino)-3,4-dihydrobenzo[f][1,4]oxazepin-5(2H)-one], the EC50 is 100 to 1000 nM.

For `Cn1ccc2cc(Nc3ccc(N4CCC(C(F)(F)F)CC4)cc3)ccc21` [Compound 347, 1-methyl-N-(4-(4-(trifluoromethyl)piperidin-1-yl)phenyl)-1H-indol-5-amine], the EC50 lay within 0.1 to 100 nM.

Consider `Cn1ccc2ccc(Nc3ccc(N4CCC(C(F)(F)F)CC4)cc3)cc21` [Compound 348, 1-methyl-N-(4-(4-(trifluoromethyl)piperidin-1-yl)phenyl)-1H-indol-6-amine], for which the EC50 is 0.1 to 100 nM.

Consider `Cn1c(=O)oc2ccc(Nc3ccc(N4CCC(C(F)(F)F)CC4)cc3)cc21` [Compound 349, 3-methyl-5-((4-(4-(trifluoromethyl)piperidin-1-yl)phenyl)amino)benzo[d]oxazol-2(3)-one], for which the EC50 was 0.1 to 100 nM.

For the compound `Cn1cnc2ccc(Nc3ccc(N4CCC(C(F)(F)F)CC4)cc3)cc21` [Compound 350, 1-methyl-N-(4-(4-(trifluoromethyl)piperidin-1-yl)phenyl)-1H-benzo[d]imidazol-6-amine], the EC50 was 0.1 to 100 nM.

With `FC(F)(F)C1CCN(c2ccc(Nc3ccc4ccoc4c3)cc2)CC1` [Compound 351, N-(4-(4-(trifluoromethyl)piperidin-1-yl)phenyl)benzofuran-6-amine], the EC50 lay within 0.1 to 100 nM.

For `CC1CCN(c2ccc(Nc3ccc4c(c3)c(N)nn4C)cc2)CC1` [Compound 352, 1-methyl-N5-(4-(4-methylpiperidin-1-yl)phenyl)-1H-indazole-3,5-diamine], the EC50 was in the range of 0.1 to 100 nM.

Take `CC1CCN(c2ccc(Nc3ccc4c(c3)c(C(=O)O)cn4C)cc2)CC1` [Compound 353, 1-methyl-5-((4-(4-methylpiperidin-1-yl)phenyl)amino)-1H-indole-3-carboxylic acid]: the EC50 fell in the range of 0.1 to 100 nM.

Turning to `COCCn1c(=O)n(C)c2cc(Nc3ccc(N4CCC(C(F)(F)F)CC4)cc3)ccc21` [Compound 354, 1-(2-methoxyethyl)-3-methyl-5-((4-(4-(trifluoromethyl)piperidin-1-yl)phenyl)amino)-1,3-dihydro-2H-benzo[d]imidazol-2-one], the EC50 lay within 0.1 to 100 nM.

For `CN(C)CCn1c(=O)n(C)c2cc(Nc3ccc(N4CCC(C(F)(F)F)CC4)cc3)ccc21` [Compound 355, 1-(2-(dimethylamino)ethyl)-3-methyl-5-((4-(4-(trifluoromethyl)piperidin-1-yl)phenyl)amino)-1,3-dihydro-2H-benzo[d]imidazol-2-one], the concentration giving a half-maximal response (EC50) was 0.1 to 100 nM.

Consider `CC(=O)Nc1nn(C)c2ccc(Nc3ccc(N4CCC(C)CC4)cc3)cc12` [Compound 356, N-(1-methyl-5-((4-(4-methylpiperidin-1-yl)phenyl)amino)-1H-indazol-3-yl) acetamide], for which the EC50 lay in the range of 0.1 to 100 nM.

Take `FC(F)(F)C1CCN(c2ccc(Nc3ccc4nc[nH]c4c3)cc2)CC1` [Compound 357, N-(4-(4-(trifluoromethyl)piperidin-1-yl)phenyl)-1H-benzo[d]imidazol-6-amine]: the EC50 is 0.1 to 100 nM.

With `FC(F)(F)C1CCN(c2ccc(Nc3ccc4cnoc4c3)cc2)CC1` [Compound 358, N-(4-(4-(trifluoromethyl)piperidin-1-yl)phenyl)benzo[d]isoxazol-6-amine], the EC50 was 0.1 to 100 nM.

As for `FC(F)(F)C1CCN(c2ccc(Nc3ccc4ocnc4c3)cc2)CC1` [Compound 359, N-(4-(4-(trifluoromethyl)piperidin-1-yl)phenyl)benzo[d]oxazol-5-amine], the EC50 fell in the range of 0.1 to 100 nM.

Consider `FC(F)(F)C1CCN(c2ccc(Nc3ccc4ncoc4c3)cc2)CC1` [Compound 360, N-(4-(4-(trifluoromethyl)piperidin-1-yl)phenyl)benzo[d]oxazol-6-amine], for which the EC50 was in the range of 0.1 to 100 nM.

In the case of `CCN(CCC(=O)OC)c1ccc(Nc2ccc3c(c2)n(C)c(=O)n3C)cc1` [Compound 361, methyl 3-((4-((1,3-dimethyl-2-oxo-2,3-dihydro-1H-benzo[d]imidazol-5-yl)amino)phenyl)(ethyl)amino)propanoate], the EC50 is 100 to 1000 nM.

As to `Cn1c(=O)n(C)c2cc(Nc3ccc(N4CCC(C(F)(F)F)CC4)nc3)ccc21` [Compound 362, 1,3-dimethyl-5-((6-(4-(trifluoromethyl)piperidin-1-yl)pyridin-3-yl)amino)-1,3-dihydro-2H-benzo[d]imidazol-2-one], the EC50 is 0.1 to 100 nM.

Regarding `Cn1c(=O)[nH]c2cc(Nc3ccc(N4CCC(C(F)(F)F)CC4)cc3)ccc21` [Compound 363, 1-methyl-5-((4-(4-(trifluoromethyl)piperidin-1-yl)phenyl)amino)-1,3-dihydro-2H-benzo[d]imidazol-2-one], the EC50 was 0.1 to 100 nM.

Regarding `Cn1ncc2cc(Nc3ccc(N4CCC(C(F)(F)F)CC4)cc3)ccc21` [Compound 364, 1-methyl-N-(4-(4-(trifluoromethyl)piperidin-1-yl)phenyl)-1H-indazol], the EC50 was 0.1 to 100 nM.

Usually EC50 stands for the concentration that produces a half-maximal response.
